Where a SMILES comes first, the peptide text is derived from it. [ ]: non-standard residue; d: D form. Nle = CCCC[C@H](N)C(=O)O
Assays:
circular dichroism = experiment: circular dichroism; parameters: unit not given here; details: 20 mM phosphoric acid; pH 2.0; 5 °C; 0.05 mg/mL
Figure 2 = experiment: Figure 2; parameters: AUCall: concentration or dose not given beside the values; details: for C0 / half-life / MRT: Sprague-Dawley, rat, plasma, iv; for MRT: read-out: MRTinf_obs
Method: Table printed on a drawing sheet, Figure 2
Footnotes: 2 mg/mL iv bolus in Sprague-Dawley rats (10 mg/kg) / * 0.6 mg/mL iv bolus in Sprague-Dawley rats (3 mg/kg)
The patent's description of the figure: FIG. 2 lists the in vivo half-lives of peptidomimetic macrocycles of the invention. Half-lives were measured in Sprague Dawley rats after one intravenous bolus injection at 0.6 mg/mL or 2 mg/mL of each unlabeled peptidomimetic macrocycle at a 3 mg/kg or 10 mg/kg dose, respectively. Three animals were used per compound and concentrations were determined by mass-spectrometric analysis of blood levels (plasma).
First reader's note: An asterisk before the peptide name marks dosing at 3 mg/kg (0.6 mg/mL) instead of 10 mg/kg (2 mg/mL).

SMILES | helicity (circular dichroism) | AUCall (Figure 2) [ng·h/mL] | Cl_obs (Figure 2) [mL/min/kg] | C0 (Figure 2) [ng/mL] | half-life (Figure 2) [h] | MRT (Figure 2) [h]
CCCC[C@H](NC(=O)[C@H](CO)NC(=O)[C@H](CC(=O)O)NC(=O)CNC(=O)[C@@H](NC(=O)[C@H](CCC(N)=O)NC(=O)[C@H](C)NC(=O)[C@H](CC(C)C)NC(=O)[C@H](Cc1c[nH]cn1)NC(=O)[C@H](CCCNC(=N)N)NC(=O)[C@H](C)NC(=O)[C@@H](NC(=O)[C@H](CC(N)=O)NC(=O)[C@H](CCCNC(=N)N)NC(=O)[C@@H](NC(=O)[C@@H](NC(=O)[C@H](CC(=O)O)NC(C)=O)[C@@H](C)CC)[C@@H](C)CC)[C@@H](C)CC)C(C)C)C(=O)N[C@@H](CC(=O)O)C(=O)N[C@@H](CCCNC(=N)N)C(=O)N[C@@H](CO)C(=O)N[C@H](C(N)=O)[C@@H](C)CC [*SP11] (Ac-DIIRNIARHLAQVGDS[Nle]DRSI-NH2) | -1890 | 1136 | 45.53 | 1080 | 1.3 | 1.6
CC(=O)N[C@@H](CCC(N)=O)C(=O)N[C@@H](CO)C(=O)N[C@@]1(C)CCCC=CCCCC2(CCCC=CCCCCCC[C@@](C)(C(=O)N[C@@H](CCC(N)=O)C(=O)N[C@@H](CC(N)=O)C(N)=O)NC(=O)[C@H](CC(C)C)NC(=O)[C@H](CC(C)C)NC(=O)[C@H](CCCNC(=N)N)NC(=O)[C@H](Cc3c[nH]c4ccccc34)NC(=O)[C@H](CC(C)C)NC(=O)[C@H](CC(N)=O)NC2=O)NC(=O)[C@H](Cc2ccccc2)NC(=O)[C@H]([C@@H](C)O)NC(=O)[C@H](CCC(N)=O)NC1=O (stereo partly drawn) [*SP17] | -12300 | 102958 | 0.995 | 72800 | 3.3 | 3
